≈ marks a conversion by molar mass, not a printed value. Calls of active or inactive are those of the source. The calls are words filed in the database; no cut-off is given here.
How the values were obtained:
[1] = target: Vascular endothelial growth factor receptor 2 (Homo sapiens) (UniProt P35968); experiment: Inhibition of recombinant human N-terminal GST-tagged VEGF-R2 C-terminal (G443 to G796) expressed in Sf9 insect cells at 20 nM using phosphatidylserine as substrate incubated for 60 mins in presence of [33P]-ATP by scintillation counting method
[2] = target: Serine/threonine-protein kinase Sgk1 (Homo sapiens) (UniProt O00141); experiment: Inhibition of recombinant human full length N-terminal GST and C-terminal His6-tagged SGK1 (M1 to L431) expressed in Sf9 insect cells at 20 nM using phosphatidylserine as substrate incubated for 60 mins in presence of [33P]-ATP by scintillation counting method
Sequence of Serine/threonine-protein kinase Sgk1 (Homo sapiens) (O00141 whole entry): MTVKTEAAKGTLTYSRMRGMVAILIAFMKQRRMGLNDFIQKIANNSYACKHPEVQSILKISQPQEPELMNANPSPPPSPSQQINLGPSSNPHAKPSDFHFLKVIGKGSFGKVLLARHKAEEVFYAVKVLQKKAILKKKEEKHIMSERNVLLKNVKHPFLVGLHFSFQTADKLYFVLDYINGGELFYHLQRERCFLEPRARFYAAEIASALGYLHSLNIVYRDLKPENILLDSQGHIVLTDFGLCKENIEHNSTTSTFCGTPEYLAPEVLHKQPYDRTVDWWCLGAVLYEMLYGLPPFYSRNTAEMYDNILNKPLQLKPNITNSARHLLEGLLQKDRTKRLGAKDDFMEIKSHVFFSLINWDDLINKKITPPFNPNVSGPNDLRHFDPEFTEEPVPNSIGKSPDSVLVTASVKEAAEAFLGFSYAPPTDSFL

[3] = target: RAC-alpha serine/threonine-protein kinase (Homo sapiens) (UniProt P31749); experiment: Inhibition of recombinant human N-terminal GST/His6-tagged and C-terminal His6-tagged AKT1(V106 to A480) expressed in Sf9 insect cells at 20 nM using phosphatidylserine as substrate incubated for 60 mins in presence of [33P]-ATP by scintillation counting method
Sequence of RAC-alpha serine/threonine-protein kinase (Homo sapiens) (P31749 whole entry): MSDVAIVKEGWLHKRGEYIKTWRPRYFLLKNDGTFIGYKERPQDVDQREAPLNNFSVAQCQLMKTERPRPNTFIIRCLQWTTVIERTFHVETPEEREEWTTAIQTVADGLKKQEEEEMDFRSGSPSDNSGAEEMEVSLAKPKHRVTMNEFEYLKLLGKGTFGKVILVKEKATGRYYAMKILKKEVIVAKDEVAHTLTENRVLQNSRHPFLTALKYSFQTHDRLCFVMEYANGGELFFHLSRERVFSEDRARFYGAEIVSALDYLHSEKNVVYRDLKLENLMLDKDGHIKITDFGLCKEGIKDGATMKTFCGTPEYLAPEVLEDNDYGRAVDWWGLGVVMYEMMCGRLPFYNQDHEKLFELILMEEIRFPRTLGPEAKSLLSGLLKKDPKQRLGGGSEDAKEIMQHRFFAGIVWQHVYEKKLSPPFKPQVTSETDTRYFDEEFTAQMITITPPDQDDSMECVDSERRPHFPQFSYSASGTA

Rattus norvegicus [4] = experiment: Unbound drug level in plasma of CFA induced Sprague-Dawley rat at 0.8 mg/kg, po after 1 hr; format: ADME, organism-based; conditions: in vivo
[5] = Protein binding in Sprague-Dawley rat brain; format: ADME, tissue-based; conditions: read-out: PB (converted)
[6] = target: Activin receptor type-1 (Homo sapiens) (UniProt Q04771); experiment: Inhibition of recombinant human N-terminal GST/His6-tagged ACVR1 C-terminal (A145 to C509) expressed in Sf9 insect cells at 20 nM using phosphatidylserine as substrate incubated for 60 mins in presence of [33P]-ATP by scintillation counting method
[7] = Apparent permeability from apical to basolateral side in MDCK cells at 50 umol/L at pH 7.4 incubated for 30 mins by LC-MS/MS analysis; format: ADME, cell-based, Canis lupus familiaris; conditions: dog
[8] = target: Insulin receptor (Homo sapiens) (UniProt P06213); experiment: Inhibition of recombinant human N-terminal GST/His6-tagged INS-R C-terminal (G989 to S1382) expressed in Sf9 insect cells at 20 nM using phosphatidylserine as substrate incubated for 60 mins in presence of [33P]-ATP by scintillation counting method
Sequence of Insulin receptor (Homo sapiens) (P06213 28-758 limits assumed): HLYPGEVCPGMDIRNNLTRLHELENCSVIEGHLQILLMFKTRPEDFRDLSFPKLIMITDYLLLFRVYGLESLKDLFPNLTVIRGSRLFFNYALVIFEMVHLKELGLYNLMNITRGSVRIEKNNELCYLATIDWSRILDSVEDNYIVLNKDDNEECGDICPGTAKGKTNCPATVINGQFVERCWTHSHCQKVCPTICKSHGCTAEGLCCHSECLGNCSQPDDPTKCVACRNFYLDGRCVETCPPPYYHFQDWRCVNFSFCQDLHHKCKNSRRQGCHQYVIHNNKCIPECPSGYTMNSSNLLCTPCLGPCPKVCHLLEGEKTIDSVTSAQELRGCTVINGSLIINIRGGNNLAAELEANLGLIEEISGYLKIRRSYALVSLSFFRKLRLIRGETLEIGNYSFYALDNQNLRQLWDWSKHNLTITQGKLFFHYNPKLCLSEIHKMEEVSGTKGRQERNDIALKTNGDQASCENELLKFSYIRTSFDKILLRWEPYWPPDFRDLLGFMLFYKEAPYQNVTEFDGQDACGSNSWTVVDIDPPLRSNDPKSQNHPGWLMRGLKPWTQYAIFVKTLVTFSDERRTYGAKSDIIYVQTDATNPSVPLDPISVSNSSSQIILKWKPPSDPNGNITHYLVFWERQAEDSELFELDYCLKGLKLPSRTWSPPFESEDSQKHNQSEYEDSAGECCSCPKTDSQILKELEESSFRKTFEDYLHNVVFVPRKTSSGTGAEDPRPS
Sequence of Insulin receptor (Homo sapiens) (P06213 763-1382 limits assumed): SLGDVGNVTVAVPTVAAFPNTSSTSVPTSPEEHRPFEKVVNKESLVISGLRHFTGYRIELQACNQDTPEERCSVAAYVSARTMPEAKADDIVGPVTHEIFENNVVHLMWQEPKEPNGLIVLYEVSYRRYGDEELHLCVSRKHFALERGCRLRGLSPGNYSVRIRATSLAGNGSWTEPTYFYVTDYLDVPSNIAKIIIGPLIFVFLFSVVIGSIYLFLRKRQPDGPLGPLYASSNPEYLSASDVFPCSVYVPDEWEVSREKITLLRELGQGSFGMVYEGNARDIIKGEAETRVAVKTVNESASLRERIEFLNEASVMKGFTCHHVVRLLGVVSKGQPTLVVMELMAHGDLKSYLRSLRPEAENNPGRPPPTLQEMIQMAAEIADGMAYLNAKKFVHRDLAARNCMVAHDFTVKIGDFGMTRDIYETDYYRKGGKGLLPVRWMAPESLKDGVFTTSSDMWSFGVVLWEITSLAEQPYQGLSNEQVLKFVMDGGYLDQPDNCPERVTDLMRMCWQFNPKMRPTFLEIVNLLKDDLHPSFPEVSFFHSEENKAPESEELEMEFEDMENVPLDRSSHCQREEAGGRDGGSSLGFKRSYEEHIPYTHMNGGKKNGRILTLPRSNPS

[9] = target: Serine/threonine-protein kinase MARK1 (Homo sapiens) (UniProt Q9P0L2); experiment: Inhibition of recombinant human full length N-terminal GST/His6-tagged MARK1 (M1 to L780) expressed in Sf9 insect cells at 20 nM using phosphatidylserine as substrate incubated for 60 mins in presence of [33P]-ATP by scintillation counting method
Sequence of Serine/threonine-protein kinase MARK1 (Homo sapiens) (Q9P0L2 whole entry, looked up): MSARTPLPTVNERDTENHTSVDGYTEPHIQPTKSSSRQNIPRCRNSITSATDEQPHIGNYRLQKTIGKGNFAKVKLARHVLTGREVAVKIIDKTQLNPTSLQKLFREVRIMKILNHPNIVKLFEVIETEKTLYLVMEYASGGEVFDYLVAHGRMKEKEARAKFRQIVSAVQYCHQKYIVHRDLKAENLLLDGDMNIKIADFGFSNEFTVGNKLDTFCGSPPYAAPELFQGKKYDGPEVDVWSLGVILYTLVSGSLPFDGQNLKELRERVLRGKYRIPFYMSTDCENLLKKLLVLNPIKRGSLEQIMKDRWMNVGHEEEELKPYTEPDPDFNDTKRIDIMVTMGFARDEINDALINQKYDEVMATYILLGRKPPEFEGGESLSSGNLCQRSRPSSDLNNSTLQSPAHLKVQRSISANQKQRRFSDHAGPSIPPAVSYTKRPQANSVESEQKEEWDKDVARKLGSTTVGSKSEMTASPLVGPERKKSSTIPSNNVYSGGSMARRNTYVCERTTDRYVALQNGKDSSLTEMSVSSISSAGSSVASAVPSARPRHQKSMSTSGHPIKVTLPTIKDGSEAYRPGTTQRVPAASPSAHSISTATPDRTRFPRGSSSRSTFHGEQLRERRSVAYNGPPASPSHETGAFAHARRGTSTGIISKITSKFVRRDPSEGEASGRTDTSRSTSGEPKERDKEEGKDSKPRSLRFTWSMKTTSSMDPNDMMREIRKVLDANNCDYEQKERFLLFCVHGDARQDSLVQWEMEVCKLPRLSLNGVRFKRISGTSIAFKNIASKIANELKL

[10] = target: Serine/threonine-protein kinase PAK 2 (Homo sapiens) (UniProt Q13177); experiment: Inhibition of recombinant human N-terminal GST/His6-tagged PAK2 (D3 to R524) expressed in Sf9 insect cells at 20 nM using phosphatidylserine as substrate incubated for 60 mins in presence of [33P]-ATP by scintillation counting method
Sequence of Serine/threonine-protein kinase PAK 2 (Homo sapiens) (Q13177 whole entry): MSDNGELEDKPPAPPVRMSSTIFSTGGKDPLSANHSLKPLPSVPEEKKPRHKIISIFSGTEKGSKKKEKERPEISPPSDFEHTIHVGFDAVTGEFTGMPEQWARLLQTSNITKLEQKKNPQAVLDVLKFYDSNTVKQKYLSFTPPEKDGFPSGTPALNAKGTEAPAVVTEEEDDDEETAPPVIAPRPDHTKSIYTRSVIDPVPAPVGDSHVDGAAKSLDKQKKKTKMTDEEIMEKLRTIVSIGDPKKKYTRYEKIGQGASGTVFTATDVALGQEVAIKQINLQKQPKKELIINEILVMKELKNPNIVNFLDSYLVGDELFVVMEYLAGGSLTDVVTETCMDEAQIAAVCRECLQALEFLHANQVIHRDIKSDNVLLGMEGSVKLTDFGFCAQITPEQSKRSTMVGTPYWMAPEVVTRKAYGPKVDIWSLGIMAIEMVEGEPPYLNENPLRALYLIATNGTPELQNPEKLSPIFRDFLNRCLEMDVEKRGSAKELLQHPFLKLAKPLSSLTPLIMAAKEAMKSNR

[11] = Unbound drug level in brain of CFA induced Sprague-Dawley rat at 20 mg/kg, po after 1 hr; format: ADME, organism-based; conditions: in vivo
[12] = target: Mitogen-activated protein kinase 3 (Homo sapiens) (UniProt P27361); experiment: Inhibition of recombinant human full length N-terminal GST/His6-tagged ERK1 (M1 to P379) expressed in Escherichia coli at 20 nM using phosphatidylserine as substrate incubated for 60 mins in presence of [33P]-ATP by scintillation counting method
Sequence of Mitogen-activated protein kinase 3 (Homo sapiens) (P27361 whole entry): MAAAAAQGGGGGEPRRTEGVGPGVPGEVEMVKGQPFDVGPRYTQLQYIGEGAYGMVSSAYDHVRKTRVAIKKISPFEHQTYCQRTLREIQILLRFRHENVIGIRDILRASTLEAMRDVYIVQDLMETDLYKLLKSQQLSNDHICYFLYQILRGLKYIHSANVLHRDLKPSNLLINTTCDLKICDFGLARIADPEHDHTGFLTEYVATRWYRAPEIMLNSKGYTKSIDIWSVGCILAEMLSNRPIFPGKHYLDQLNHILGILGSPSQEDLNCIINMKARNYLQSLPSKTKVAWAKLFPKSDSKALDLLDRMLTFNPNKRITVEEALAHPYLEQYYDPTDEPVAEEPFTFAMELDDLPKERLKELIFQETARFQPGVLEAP

[13] = target: Tyrosine-protein kinase Lyn (Homo sapiens) (UniProt P07948); experiment: Inhibition of recombinant human full length N-terminal GST/His6-tagged LYN (M1 to P512) expressed in Sf9 insect cells at 20 nM using phosphatidylserine as substrate incubated for 60 mins in presence of [33P]-ATP by scintillation counting method
Sequence of Tyrosine-protein kinase Lyn (Homo sapiens) (P07948 2-512 limits assumed): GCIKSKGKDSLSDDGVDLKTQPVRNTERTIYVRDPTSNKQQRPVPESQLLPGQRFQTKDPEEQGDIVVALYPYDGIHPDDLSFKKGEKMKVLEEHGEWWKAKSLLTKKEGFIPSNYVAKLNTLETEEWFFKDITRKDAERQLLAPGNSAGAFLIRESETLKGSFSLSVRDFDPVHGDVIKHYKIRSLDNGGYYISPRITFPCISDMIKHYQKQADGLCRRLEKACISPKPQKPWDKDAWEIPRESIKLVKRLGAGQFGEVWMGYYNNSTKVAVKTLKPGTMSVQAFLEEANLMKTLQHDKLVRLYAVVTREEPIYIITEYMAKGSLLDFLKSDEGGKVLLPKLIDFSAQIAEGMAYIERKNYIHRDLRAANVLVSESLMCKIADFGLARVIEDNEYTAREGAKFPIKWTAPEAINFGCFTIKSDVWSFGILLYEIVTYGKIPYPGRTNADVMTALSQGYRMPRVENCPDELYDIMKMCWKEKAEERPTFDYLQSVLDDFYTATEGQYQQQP

[14] = target: Tyrosine-protein kinase Lck (Homo sapiens) (UniProt P06239); experiment: Inhibition of recombinant human full length N-terminal GST/His6-tagged LCK (M1 to P509) expressed in Sf9 insect cells at 20 nM using phosphatidylserine as substrate incubated for 60 mins in presence of [33P]-ATP by scintillation counting method
[15] = target: MAP kinase-activated protein kinase 2 (Homo sapiens) (UniProt P49137); experiment: Inhibition of recombinant human full length N-terminal GST/His6-tagged MAPKAPK2 (M1 to L370) expressed in Sf9 insect cells at 20 nM using phosphatidylserine as substrate incubated for 60 mins in presence of [33P]-ATP by scintillation counting method
Sequence of MAP kinase-activated protein kinase 2 (Homo sapiens) (P49137 whole entry, looked up): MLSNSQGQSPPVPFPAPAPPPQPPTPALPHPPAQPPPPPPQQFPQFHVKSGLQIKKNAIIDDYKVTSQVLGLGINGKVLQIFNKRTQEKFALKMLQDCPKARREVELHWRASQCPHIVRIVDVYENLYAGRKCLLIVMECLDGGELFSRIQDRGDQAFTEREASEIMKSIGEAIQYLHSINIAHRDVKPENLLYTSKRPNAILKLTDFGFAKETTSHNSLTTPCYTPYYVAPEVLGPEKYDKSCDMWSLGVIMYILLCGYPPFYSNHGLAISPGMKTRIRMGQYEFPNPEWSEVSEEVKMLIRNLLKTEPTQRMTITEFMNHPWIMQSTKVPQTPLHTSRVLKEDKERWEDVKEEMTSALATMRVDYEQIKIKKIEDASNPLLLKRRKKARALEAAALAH

[16] = target: Mitogen-activated protein kinase 14 (Homo sapiens) (UniProt Q16539); experiment: Inhibition of recombinant human full length p38-alpha (M1 to S360) expressed in Escherichia coli at 20 nM using phosphatidylserine as substrate incubated for 60 mins in presence of [33P]-ATP by scintillation counting method
Rattus norvegicus [17] = experiment: Antinociceptive activity in CFA induced thermal hypersensitivity Sprague-Dawley rat model assessed as increase in paw withdrawal latency at 100 mg/kg, po after 1 hr; format: functional, organism-based
Rattus norvegicus [18] = experiment: Unbound drug level in plasma of CFA induced Sprague-Dawley rat at 4 mg/kg, po after 1 hr; format: ADME, organism-based; conditions: in vivo
Rattus norvegicus [19] = experiment: Unbound drug level in plasma of CFA induced Sprague-Dawley rat at 20 mg/kg, po after 1 hr; format: ADME, organism-based; conditions: in vivo
[20] = Unbound drug level in brain of CFA induced Sprague-Dawley rat at 100 mg/kg, po after 1 hr; format: ADME, organism-based; conditions: in vivo
[21] = target: cGMP-dependent protein kinase 1 (Homo sapiens) (UniProt Q13976); experiment: Inhibition of PRKG1 (unknown origin) at 20 nM using cGMP as substrate incubated for 60 mins in presence of [33P]-ATP by scintillation counting method
[22] = Half life in Sprague-Dawley rat at 1 mg/kg, iv; format: ADME, organism-based; conditions: in vivo
[23] = Ratio of drug level in brain to plasma of Sprague-Dawley rat at 2.5 mg/kg, ip; format: ADME, organism-based; conditions: read-out: BPR
[24] = target: Protein kinase C theta type (Homo sapiens) (UniProt Q04759); experiment: Inhibition of recombinant human full length N-terminal GST and C-terminal His6-tagged PKC-theta (M1 to S706) expressed in Sf9 insect cells at 20 nM using phosphatidylserine as substrate incubated for 60 mins in presence of [33P]-ATP by scintillation counting method
Rattus norvegicus [25] = experiment: Antinociceptive activity in CFA induced thermal hypersensitivity Sprague-Dawley rat model assessed as increase in paw withdrawal latency at 4 mg/kg, po after 1 hr; format: functional, organism-based
[26] = Solubility of test compound; format: physicochemical
[27] = Intrinsic clearance in human liver microsomes; format: ADME, Microsome; conditions: read-out: CLH
Rattus norvegicus [28] = experiment: Antinociceptive activity in CFA induced thermal hypersensitivity Sprague-Dawley rat model assessed as increase in paw withdrawal latency at 20 mg/kg, po after 1 hr; format: functional, organism-based
[29] = target: Ribosomal protein S6 kinase alpha-1 (Homo sapiens) (UniProt Q15418); experiment: Inhibition of RPS6KA1 (unknown origin) at 20 nM using phosphatidylserine as substrate incubated for 60 mins in presence of [33P]-ATP by scintillation counting method

- inhibition [1]: 4%
- inhibition [2]: -1%
- inhibition [3]: 6%
- Cp(f) (Rattus norvegicus [4]): 4.7 nM
- fraction unbound [5]: 0.038
- inhibition [6]: -2%
- Papp A→B at 0.5 h, 50 µM [7]: 15.2 ×10⁻⁶ cm/s
- inhibition [8]: -7%
- inhibition [9]: -8%
- inhibition [10]: 12%
- Drug uptake(free) [11]: 1.5 nM
- inhibition [12]: -9%
- inhibition [13]: -1%
- inhibition [14]: -6%
- inhibition [15]: 19%
- inhibition [16]: -8%
- Cp(f) (Rattus norvegicus [18]): 14.9 nM
- Cp(f) (Rattus norvegicus [19]): 70.9 nM
- Drug uptake(free) [20]: 3.5 nM
- inhibition [21]: -5%
- half-life [22]: 1.46 h
- Kp [23]: 0.03
- inhibition [24]: -2%
- solubility [26]: 141 µM (≈ 56.2 µg/mL)
- CLint scaled [27]: 127 mL/min/kg
- inhibition [29]: 7%
Compound: Cn1cc(-c2n[nH]c3ccc(NCc4cc(F)ccc4S(C)(=O)=O)cc23)cn1
- Activity (Rattus norvegicus [17]): Active
- Activity (Rattus norvegicus [25]): Active
- Activity (Rattus norvegicus [28]): Active

Source: ChEMBL document CHEMBL4346729, “The discovery of novel 3-aryl-indazole derivatives as peripherally restricted pan-Trk inhibitors for the treatment of pain” (Bioorg Med Chem Lett, 2019)
